{
  "source": "PubChem BioAssay AID1963848",
  "about": "(Molecular Pharmacology Branch, DTP, NCI, 2024);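 note: spheroids exposed to drugs for seven days before readout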;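 for viability, T/C: percent viability relative to DMSO vehicle control taken as 100%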",
  "system": "379773-124-R-J2-PDC spheroid viability",
  "assay": "Anticancer human tumor 379773-124-R-J2-PDC patient-derived endometrial carcinoma cell line growth inhibition [POLQ]",
  "settings": "spheroids with HUVEC and MSC; for IC50: curve of first compound; for viability, T/C: stronger effect = lower value",
  "how_it_was_run": "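Patient-derived tumour cells were co-cultured with HUVEC and mesenchymal stem cells as multicellular spheroids at 37 °C. They were treated with POLQ inhibitors (novobiocin, ART-558, RP6685) alone or combined with other agents. Top concentrations were at or near clinical Cmax (otherwise 10 microM; SN-38 at 1 microM), decreasing in half-log steps.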",
  "data": [
    {"smiles": "Nc1ccn(C2OC(CO)C(O)C2(F)F)c(=O)n1", "note": "(configuration not stated) + Cc1cccc(N(C)C(=O)C2C(O)CCN2c2nc(C)cc(C(F)(F)F)c2C#N)c1", "values": [
      {"measurement": "IC50", "setting": "second compound 0.0316 µM", "result": "< 31.6", "unit": "nM"},
      {"measurement": "IC50", "setting": "second compound 0.1 µM", "result": "< 31.6", "unit": "nM"},
      {"measurement": "IC50", "setting": "second compound 0.316 µM", "result": "< 31.6", "unit": "nM"},
      {"measurement": "IC50", "setting": "second compound 1 µM", "result": "< 31.6", "unit": "nM"},
      {"measurement": "IC50", "setting": "second compound 3.16 µM", "result": "< 31.6", "unit": "nM"},
      {"measurement": "IC50", "setting": "second compound 10 µM", "result": "< 31.6", "unit": "nM"},
      {"measurement": "viability, T/C", "setting": "second compound 0.0316 µM, first compound 0.0316 µM", "result": 25.1, "unit": "%"},
      {"measurement": "viability, T/C", "setting": "second compound 0.0316 µM, first compound 0.1 µM", "result": 9.7, "unit": "%"},
      {"measurement": "viability, T/C", "setting": "second compound 0.0316 µM, first compound 0.316 µM", "result": 7.84, "unit": "%"},
      {"measurement": "viability, T/C", "setting": "second compound 0.0316 µM, first compound 1 µM", "result": 9.16, "unit": "%"},
      {"measurement": "viability, T/C", "setting": "second compound 0.0316 µM, first compound 3.16 µM", "result": 9.02, "unit": "%"},
      {"measurement": "viability, T/C", "setting": "second compound 0.0316 µM, first compound 10 µM", "result": 7.36, "unit": "%"},
      {"measurement": "viability, T/C", "setting": "second compound 0.1 µM, first compound 0.0316 µM", "result": 21, "unit": "%"},
      {"measurement": "viability, T/C", "setting": "second compound 0.1 µM, first compound 0.1 µM", "result": 11.4, "unit": "%"},
      {"measurement": "viability, T/C", "setting": "second compound 0.1 µM, first compound 0.316 µM", "result": 10.4, "unit": "%"},
      {"measurement": "viability, T/C", "setting": "second compound 0.1 µM, first compound 1 µM", "result": 8.24, "unit": "%"},
      {"measurement": "viability, T/C", "setting": "second compound 0.1 µM, first compound 3.16 µM", "result": 9.14, "unit": "%"},
      {"measurement": "viability, T/C", "setting": "second compound 0.1 µM, first compound 10 µM", "result": 8.33, "unit": "%"},
      {"measurement": "viability, T/C", "setting": "second compound 0.316 µM, first compound 0.0316 µM", "result": 25.4, "unit": "%"},
      {"measurement": "viability, T/C", "setting": "second compound 0.316 µM, first compound 0.1 µM", "result": 11.3, "unit": "%"},
      {"measurement": "viability, T/C", "setting": "second compound 0.316 µM, first compound 0.316 µM", "result": 7.36, "unit": "%"},
      {"measurement": "viability, T/C", "setting": "second compound 0.316 µM, first compound 1 µM", "result": 9.63, "unit": "%"},
      {"measurement": "viability, T/C", "setting": "second compound 0.316 µM, first compound 3.16 µM", "result": 9.1, "unit": "%"},
      {"measurement": "viability, T/C", "setting": "second compound 0.316 µM, first compound 10 µM", "result": 9.51, "unit": "%"},
      {"measurement": "viability, T/C", "setting": "second compound 1 µM, first compound 0.0316 µM", "result": 17.7, "unit": "%"},
      {"measurement": "viability, T/C", "setting": "second compound 1 µM, first compound 0.1 µM", "result": 8.64, "unit": "%"},
      {"measurement": "viability, T/C", "setting": "second compound 1 µM, first compound 0.316 µM", "result": 7.94, "unit": "%"},
      {"measurement": "viability, T/C", "setting": "second compound 1 µM, first compound 1 µM", "result": 9.54, "unit": "%"},
      {"measurement": "viability, T/C", "setting": "second compound 1 µM, first compound 3.16 µM", "result": 10.9, "unit": "%"},
      {"measurement": "viability, T/C", "setting": "second compound 1 µM, first compound 10 µM", "result": 9.2, "unit": "%"},
      {"measurement": "viability, T/C", "setting": "second compound 3.16 µM, first compound 0.0316 µM", "result": 21.1, "unit": "%"},
      {"measurement": "viability, T/C", "setting": "second compound 3.16 µM, first compound 0.1 µM", "result": 10.5, "unit": "%"},
      {"measurement": "viability, T/C", "setting": "second compound 3.16 µM, first compound 0.316 µM", "result": 8.82, "unit": "%"},
      {"measurement": "viability, T/C", "setting": "second compound 3.16 µM, first compound 1 µM", "result": 9.94, "unit": "%"},
      {"measurement": "viability, T/C", "setting": "second compound 3.16 µM, first compound 3.16 µM", "result": 10.1, "unit": "%"},
      {"measurement": "viability, T/C", "setting": "second compound 3.16 µM, first compound 10 µM", "result": 9.91, "unit": "%"},
      {"measurement": "viability, T/C", "setting": "second compound 10 µM, first compound 0.0316 µM", "result": 15.7, "unit": "%"},
      {"measurement": "viability, T/C", "setting": "second compound 10 µM, first compound 0.1 µM", "result": 10.8, "unit": "%"},
      {"measurement": "viability, T/C", "setting": "second compound 10 µM, first compound 0.316 µM", "result": 12.1, "unit": "%"},
      {"measurement": "viability, T/C", "setting": "second compound 10 µM, first compound 1 µM", "result": 11.4, "unit": "%"},
      {"measurement": "viability, T/C", "setting": "second compound 10 µM, first compound 3.16 µM", "result": 13.6, "unit": "%"},
      {"measurement": "viability, T/C", "setting": "second compound 10 µM, first compound 10 µM", "result": 11.1, "unit": "%"}
    ]}
  ]
}
